# Values joined by “and” are separate entries in the source; they are usually repeats but may differ in a detail not shown here. Identical values can stand only once.
# Tests used:
# [1] = tested on: cisplatin induced emesis in the ferret; test: cisplatin-induced emesis in the ferret; type: in vivo; conditions: for anti-emetic effect (in words): emesis model in the ferret, compound A 30 and 100 mg/kg, ondansetron 16 mg/kg; for Number of Emesis periods / Number of Retches / Number of Vomits: 3 h observation
# From the text: The preferred model to assess an anti emetic potential in animals is the cisplatin-induced emesis in the ferret in which the effects of 5HT3A and NK1 antagonists have been thoroughly investigated. The method, which detects antiemetic activity, follows that described by Gardner et al (Brit. J. Pharmacol., 116, 3158-3163, 1995).
# Sixty minutes before administration of the test substance, ferrets are placed in individual stainless steel cages (40 x 50 x 34 cm) with a grid floor. Then, the animals are challenged with cisplatin (10 mg/kg i.p.), and immediately observed over a 3-hour period for: • Number of ferrets showing retches and vomits; • Latency to first retching (h:min:s); • Latency to first vomiting (h:min:s); • Retching (number of retches); • Vomiting (number of vomits); • Number of emesis periods; • Mean duration of emesis periods (min:s); • Severe behavioral side effects. Retching is defined as a rhythmic respiratory movement against a closed glottis, while vomiting is defined as a forced expulsion of upper gastrointestinal contents.
# The assay as described above was used to evaluate the anti emetic effects of melanocortin-4 receptor antagonists.
# Eight ferrets were studied per group. The test substance was evaluated at two doses (30 and 100 mg/kg), administered p.o. 90 minutes before cisplatin, and compared with an appropriate vehicle control group (vehicle administered 90 minutes before cisplatin).
# Quantitative data was analyzed by comparing treated groups with vehicle control using unpaired Student's t tests.
# Comparison between treated groups and vehicle control was done using Mann-Whitney U tests.
# MC-4 receptor = MC-4 receptor (Homo sapiens, UniProt P32245); test: block of the MC-4 receptor (internal finding, no method given)
# [2] = group mean (8 ferrets), Compound A 30 mg/kg p.o. 1.5 h before cisplatin 10 mg/kg i.p.
# [3] = group mean (8 ferrets), Compound A 100 mg/kg p.o. 1.5 h before cisplatin 10 mg/kg i.p.
# [4] = individual animal, Compound A 30 mg/kg p.o. 1.5 h before cisplatin 10 mg/kg i.p.
# [5] = individual animal, Compound A 100 mg/kg p.o. 1.5 h before cisplatin 10 mg/kg i.p.
# [6] = group mean (8 ferrets), Ondansetron 16 mg/kg p.o. 1 h before cisplatin 10 mg/kg i.p.
# [7] = individual animal, Ondansetron 16 mg/kg p.o. 1 h before cisplatin 10 mg/kg i.p.
# Sequence of MC-4 receptor (P32245 whole entry): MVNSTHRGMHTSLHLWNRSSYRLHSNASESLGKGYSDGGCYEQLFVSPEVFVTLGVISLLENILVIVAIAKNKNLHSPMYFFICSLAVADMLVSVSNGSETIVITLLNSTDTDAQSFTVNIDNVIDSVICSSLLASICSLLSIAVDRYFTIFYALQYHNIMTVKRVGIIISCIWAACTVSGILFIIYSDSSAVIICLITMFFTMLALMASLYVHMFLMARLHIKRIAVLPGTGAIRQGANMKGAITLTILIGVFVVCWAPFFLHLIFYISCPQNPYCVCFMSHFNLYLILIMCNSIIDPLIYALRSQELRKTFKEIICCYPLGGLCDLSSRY
structure (smiles),measurement,setting,value
CC[C@H](COc1cccnc1C1CCN(C(=O)[C@@H](Cc2ccc(Cl)cc2Cl)NC(=O)N2CCCC2)CC1)N1CCCC1 [Compound A],anti-emetic effect (in words),[1],pronounced anti-emetic properties
same,Number of Emesis periods,[1]; [2],6.4
same,Number of Retches,[1]; [2],64.4
same,Number of Vomits,[1]; [2],2.4
same,Number of Emesis periods,[1]; [3],2.3
same,Number of Retches,[1]; [3],19.9
same,Number of Vomits,[1]; [3],0.8
same,Number of Emesis periods,[1]; [4],14 and 4 and 7 and 0 (2×) and 3 and 13 and 10
same,Number of Retches,[1]; [4],156 and 26 and 90 and 0 (2×) and 41 and 118 and 84
same,Number of Vomits,[1]; [4],9 and 0 (3×) and 2 (2×) and 1 and 5
same,Number of Emesis periods,[1]; [5],5 and 0 (4×) and 1 and 8 and 4
same,Number of Retches,[1]; [5],28 and 0 (4×) and 10 and 83 and 38
same,Number of Vomits,[1]; [5],2 (3×) and 0 (5×)
"Cc1nccn1CC1CCc2c(c3ccccc3n2C)C1=O (stereo not shown) [Ondansetron, ondansetron, reference compound]",anti-emetic effect (in words),[1],clear anti-emetic effect
same,Number of Emesis periods,[1]; [6],5.0
same,Number of Retches,[1]; [6],41.1
same,Number of Vomits,[1]; [6],1.9
same,Number of Emesis periods,[1]; [7],0 (4×) and 14 (2×) and 3 and 9
same,Number of Retches,[1]; [7],0 (4×) and 113 and 26 and 56 and 134
same,Number of Vomits,[1]; [7],0 (5×) and 2 and 6 and 7
same,block of the MC-4 receptor,MC-4 receptor,doesn't block
same,separation between 5HT3 and MC-4,MC-4 receptor,more than 10000 fold

# Reference: patent EP2072050A1, “Compounds with anti-emetic effect” (Santhera Pharmaceuticals (Schweiz) AG, priority 2007, dated 2009)
